Assay results as given in PMC9883013 (eLife, 2023).
Several values for one entry are separate records, joined by “and”; a condition that tells them apart may be missing. Identical values can stand only once. Entries after “also recorded” stand apart in the source; their conditions may differ. Like-named read-outs stand apart in the source and are kept apart here.

Columns and labels:
[1] = system: NCCc1c[nH]c2ccc(O)cc12; test: cells, lysate or membranes; conditions: other: absence of any inhibitor; pH 7.4
[2] = target: T1, wild-type GFP-tagged human SERT (Homo sapiens, UniProt P31645); test: Whole-cell patch clamp recordings of currents through SERT; assay type: cell-based; conditions: 100 µM pre-applied for 1 s or 3 s in the absence of 5-HT; internal 150 mM NaCl
T1 construct: expressed in transfected cells

[3] = target: T1, wild-type GFP-tagged human SERT; test: as above; assay type: cell-based; conditions: for transient peak current on application of the compound: 100 µM, absence of substrate
Experimental: HEK293 cells stably expressing wild-type GFP-tagged human SERT were seeded at low density on poly-D-lysine-coated dishes. Twenty hr after seeding, these cells were subjected to patch clamp recordings in the whole-cell configuration. In most instances cells were continuously maintained in an external solution containing 140 mM NaCl, 3 mM KCl, 2.5 mM CaCl2, 2 mM MgCl2, 20 mM glucose, and 10 mM HEPES (pH adjusted to 7.4 with NaOH) and the drugs were diluted therein. The internal solution in the patch pipette contained 133 mM potassium gluconate (CH2OH(CHOH)4COOK), 5.9 mM NaCl, 1 mM CaCl2, 0.7 mM MgCl2, 10 mM HEPES, 10 mM EGTA (pH adjusted to 7.2 with KOH). Drugs were applied using a 4-tube ALA perfusion manifold (NPI Electronic GmbH, Germany) and a DAD-12 superfusion system (Adams & List, Westbury, NY, USA) allowing for complete solution exchange around the cells within 100 ms. Current amplitudes and associated kinetics were quantified using Clampfit 10.2 software. Passive holding currents were subtracted, and the traces were filtered using a 100 Hz digital Gaussian low-pass filter.

[4] = target: WT-SERT (Homo sapiens, UniProt P31645); test: [3H]5-HT uptake by cells transiently expressing WT-SERT after 24 hr preincubation; conditions: 30 µM for 24 hr; 0.1 µM [3H]5-HT
[5] = target: T2, SERT-PG^601,602AA (Homo sapiens, UniProt P31645, G602A/P601A); test: Functional rescue (pharmacochaperoning) of folding-deficient SERT mutant, [3H]5-HT uptake after 24 hr preincubation; assay type: cell-based; conditions: for [3H]5-HT uptake normalized to untreated wild-type SERT: 30 µM for 24 hr, 0.1 µM [3H]5-HT, untreated mutant 14.8 ± 5.3%; for Emax: read-out: EMAX of pharmacochaperoning (rescued uptake, % of transport velocity in cells expressing wild-type SERT)
T2 construct: expressed in transfected cells; host or cells: HEK293 (ATCC CRL-1573), transient PEI transfection

[6] = target: T3, wild-type human YFP-tagged SERT (Homo sapiens, UniProt P31645); test: Inhibition of SERT-mediated [3H]5-HT uptake in HEK293 cells stably expressing YFP-SERT; assay type: cell-based; parameters: expressed in transfected cells
[7] = target: T2, SERT-PG^601,602AA; test: Immunoblotting of glycosylation state (mature vs core-glycosylated band) of the SERT mutant; assay type: cell-based
[8] = target: T3, wild-type human YFP-tagged SERT; test: Saturation kinetics (KM, Vmax) of 5-HT uptake by SERT after preincubation with inhibitor
[9] = system: YFP-tagged wild-type human SERT in serotonergic neurons; test: Localization of wild-type transporter in the fan-shaped body in transgenic flies fed with drug; assay type: in vivo, Drosophila melanogaster; conditions: 100 µM in food for 48 hr, flies harboring wild-type human SERT
Excerpt: (§1) The transgenic UAS reporter lines for YFP-tagged human wild-type SERT and SERT-PG^601,602AA were generated using the pUAST-attB vector (gift from Drs Bischof and Basler, University of Zürich) and injected into embryos of ZH-86Fb flies (Bloomington stock no. 24749). Positive transformants were isolated and selected. TRH-T2A-Gal4 (Bloomington stock no. 84694) was used to drive the expression of transporters in serotonergic neurons. […] The brains of these flies were then imaged using confocal microscopy. All flies were kept at 25°C, and all crosses were performed at 25°C.
(§2) Adult fly brains were dissected in PBS and fixed in 2% paraformaldehyde in PBS for 1 hr at room temperature. Brains were then washed three times in 0.1% Triton X-100 in PBS for 20 min on a shaker. Blocking was performed in 10% goat serum for 1 hr at room temperature on a shaker. Brains were then incubated in primary antibody overnight in PBS containing 3% BSA and 0.3% Triton X-100 at 4°C on a shaker. The rabbit polyclonal IgG directed against GFP (1:1000 dilution; A-11122, Invitrogen) and anti-serotonin antibody (S5545, Sigma-Aldrich) were used as primary antibodies. After three washes for 20 min with PBS containing 0.1% Triton X-100, the brains were incubated overnight at 4°C with a secondary antibody in PBS containing 0.3% Triton X-100 on a shaker. […]

[10] = target: T4, SERT (Homo sapiens, UniProt P31645); test: Inhibition of [3H]citalopram binding to membranes from HEK293 cells expressing GFP-SERT
T4 construct: expressed in transfected cells
Experimental: Membranes were prepared from HEK293 cells stably expressing GFP-SERT. […] The pellets were resuspended in a buffer containing 20 mM HEPES, 2 mM MgCl2, 1 mm EDTA, pH adjusted to 7.4 with NaOH, subjected to freeze-thaw cycles in liquid nitrogen and sonicated on ice three times for 10 s with 30 s intervals. Following another centrifugation step, the whole-cell membrane pellets were resuspended in buffer and protein concentration was estimated by dye binding (Coomassie Brilliant Blue R-250; Bio-Rad, USA). […] Binding reactions were also done in the presence of 120 mM K^+ buffer (buffer composition: 20 mM Tris-HCl, pH 7.4, 1 mM EDTA, 2 mM MgCl2, 120 mM KCl; 4 mM Na^+ were present from the carry-over of HEPES·NaOH and from Na·EDTA). For binding reactions under these conditions, 7–8 µg of membranes were used to improve the dynamic range of binding. The binding reactions were terminated by harvesting the membranes on glass fiber filters precoated with polyethylenimine and rapid washing with ice-cold wash buffer (10 mM Tris·HCl, pH 7.4, 120 mM NaCl, 2 mM MgCl2). The radioactivity trapped on the filters was quantified by liquid scintillation counting. Nonspecific binding was measured in the presence of 10 µM paroxetine.

[11] = system: YFP-tagged human SERT-PG^601,602AA in serotonergic neurons; test: Delivery of mutant transporter to the fan-shaped body in transgenic flies fed with drug; assay type: in vivo, Drosophila melanogaster; conditions: 100 µM in food for 48 hr, 3-day old male flies
Excerpt: as §1, §2

[12] = inhibition of 10 µM 5-HT-induced steady current
[13] = preincubation with 10 µM inhibitor
[14] = preincubation with 30 µM inhibitor
[15] = preincubation with 3 µM inhibitor

Compound: wild-type human YFP-tagged SERT (Homo sapiens)
- Km [1]: 2.3 µM

Compound: O=CNC(Cc1ccc2c(c1)OCO2)Cc1ccc2c(c1)OCO2 [ECSI#6, N-formyl-1,3-bis (3,4-methylenedioxyphenyl)-prop-2-yl-amine]
- effect of pre-application on 5-HT-induced peak current amplitude [2]: did not result in the reduction of the peak current amplitude
- IC50 ([3]; 30 µM 5-HT, ECSI#6 co-applied, read-out: IC50 of block of the 5-HT-induced steady current): 4.5 µM and ~5 µM
- effect on 5-HT-induced steady current ([3]; 100 µM in continuous presence of 10 µM 5-HT): complete suppression of the current
- effect of intracellular application on 5-HT-induced current amplitude ([3]; 100 µM in the electrode solution, 30 µM 5-HT): only had a modest effect, if any; also recorded: did not cause an appreciable current block
- ratio of the second and first pulse (peak 2/peak 1) ([3]; 100 µM pre-applied for 1 s or 3 s): always close to one
- transient peak current on application of the compound [3]: failed to do so
- koff (y-intercept of kapp vs concentration) [3, 12]: 1.7±0.5 s^–1
- kon (slope of kapp vs concentration) [3, 12]: 2.1*10^4±3.5*10^3 M^–1 s^–1
- [3H]5-HT uptake normalized to untreated wild-type SERT [4]: 103.3 ± 11.3%
- [3H]5-HT uptake normalized to untreated wild-type SERT [5]: 56.5 ± 5.1%
- EC50 ([5]; 24 hr preincubation, read-out: EC50 for pharmacochaperoning (rescued uptake)): 2.9 µM
- Emax [5]: 52%
- IC50 ([6]; IC50(0.1), inhibition of [3H]5-HT uptake, 0.1 µM [3H]5-HT, absence of additional unlabeled 5-HT): 441 µM
- IC50 ([6]; IC50(1), inhibition of [3H]5-HT uptake, 0.1 µM [3H]5-HT, presence of 1 µM unlabeled 5-HT): 74.1 µM
- IC50 ([6]; IC50(3), inhibition of [3H]5-HT uptake, 0.1 µM [3H]5-HT, presence of 3 µM unlabeled 5-HT): 25.6 µM
- IC50 ([6]; IC50(10), inhibition of [3H]5-HT uptake, 0.1 µM [3H]5-HT, presence of 10 µM unlabeled 5-HT): 19.3 µM
- IC50 ([6]; low 5-HT concentration (0.1 µM), read-out: IC50 value in the uptake assay): ~500 µM
- EC50 [7]: 0.44 µM
- EMAX of ratio of mature (M) to core-glycosylated band (C) ([7]; 24 hr treatment, densitometry, corrected for Gβ): 1.42 AU
- mode of inhibition of substrate uptake by SERT [8]: uncompetitive inhibition
- VMAX of 5-HT transport by SERT [8, 13]: 89.5 pmol min^–1 10^–6 cells
- VMAX of 5-HT transport by SERT [8, 14]: 49.9 pmol min^–1 10^–6 cells
- VMAX of 5-HT transport by SERT ([8]; preincubation with 100 µM inhibitor): 20.8 pmol min^–1 10^–6 cells
- effect on level of fluorescence in the fan-shaped body [9]: did not have any appreciable effect
- fold more potent in displacing [3H]citalopram in 120 mM KCl than in 120 mM NaCl [10]: about 10 fold
- binding relative to serotonin (Dixon plots) ([10]; 1 and 10 µM serotonin): mutually exclusive
- IC50 ([10]; IC50(1 µM 5-HT), inhibition of [3H]citalopram binding, 120 mM Na+, 1 µM 5-HT): 28.6 µM
- IC50 ([10]; IC50(10 µM 5-HT), inhibition of [3H]citalopram binding, 120 mM Na+, 10 µM 5-HT): 60 µM
- IC50 ([10]; IC50(no 5-HT), inhibition of [3H]citalopram binding, 120 mM Na+, 3 nM [3H]citalopram, no 5-HT): 16 µM
- IC50 ([10]; buffer with 120 mM K+, read-out: IC50(120 K+), inhibition of [3H]citalopram binding): 4.18 µM and 5 µM
- IC50 ([10]; buffer with 120 mM Na+ (Na+/K+ comparison), read-out: IC50(120 Na+), inhibition of [3H]citalopram binding): 46.2 µM
- affinity estimate, fold lower than the KD of 1 µM required for ToNaS ([10]; presence of 10 µM 5-HT): > 30 fold
- delivery of the mutant transporter to the presynaptic territory (fan-shaped body) [11]: partially restored the delivery of the mutant transporter to the presynaptic territory

Compound: CCC1CC2CC3c4[nH]c5ccc(O)cc5c4CCN(C2)C13 (stereo not drawn) [noribogaine, reference compound]
- transient peak current on application of the compound [3]: induced transient peak currents
- [3H]5-HT uptake normalized to untreated wild-type SERT [4]: 93.5 ± 28.8%
- [3H]5-HT uptake normalized to untreated wild-type SERT [5]: 71.9 ± 6.4%
- Emax [5]: 69.5%
- mode of inhibition of substrate uptake by SERT [8]: non-competitive
- VMAX of 5-HT transport by SERT ([8]; preincubation with 1 µM inhibitor): 82.4 pmol min^–1 10^–6 cells
- VMAX of 5-HT transport by SERT [8, 15]: 39.9 pmol min^–1 10^–6 cells
- VMAX of 5-HT transport by SERT [8, 13]: 19.5 pmol min^–1 10^–6 cells
- effect on level of fluorescence in the fan-shaped body [9]: did not have any appreciable effect
- potency in inhibiting [3H]citalopram binding in 120 mM KCl compared with 120 mM NaCl [10]: distinct binding preference was not obvious
- delivery of the mutant transporter to the presynaptic territory (fan-shaped body) [11]: partially restored the delivery of the mutant transporter to the presynaptic territory

Compound: COC(=O)[C@H]1[C@@H](OC(=O)c2ccccc2)C[C@@H]2CC[C@H]1N2C [cocaine]
- kapp of current inhibition, level at which it leveled off ([3]; 10 µM 5-HT-induced steady current, –60 mV): about 2 s^–1
- transient peak current on application of the compound [3]: induced transient peak currents
- [3H]5-HT uptake normalized to untreated wild-type SERT [4]: 111.4 ± 4.2%
- effect on SERT species carrying mature glycans ([7]; 30 µM (saturating concentration), 24 hr): did not cause any appreciable increase
- mode of inhibition of substrate uptake by SERT [8]: competitive
- VMAX of 5-HT transport by SERT [8, 15]: 118.3 pmol min^–1 10^–6 cells
- VMAX of 5-HT transport by SERT [8, 13]: 121.1 pmol min^–1 10^–6 cells
- VMAX of 5-HT transport by SERT [8, 14]: 120.1 pmol min^–1 10^–6 cells
- potency in inhibiting [3H]citalopram binding in 120 mM KCl compared with 120 mM NaCl [10]: substantially less potent (by an order of magnitude)
